Experimental data published in PubChem BioAssay AID180 (DTP/NCI, 2004).
Where “and” joins values, the source holds several entries; their conditions need not be identical. Identical values can stand only once.

System: BDF1 mice, Adenocarcinoma 755 s.c., tumor weight T/C
Assay: NCI In Vivo Anticancer Drug Screen. Data for tumor model Adenocarcinoma 755 (subcutaneous) in B6D2F1 (BDF1) mice
Settings: endpoint: mean tumor weight, higher = larger tumour
Method in brief: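 Values express treated (T) relative to vehicle-dosed control (C) animals, based on survival or tumour size measured after compound treatment of mice bearing a transplanted tumour.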

[1] = dose: 25.0 mg/kg/injection, schedule: Q01DX011 (ip), vehicle: carboxymethylcellulose (CMC)
[2] = dose: 50.0 mg/kg/injection, schedule: Q01DX011 (ip), vehicle: carboxymethylcellulose (CMC)
[3] = dose: 0.25 mg/kg/injection, schedule: Q01DX011 (ip), vehicle: carboxymethylcellulose (CMC)
[4] = dose: 1.0 mg/kg/injection, schedule: Q01DX011 (ip), vehicle: carboxymethylcellulose (CMC)
[5] = dose: 2.0 mg/kg/injection, schedule: Q01DX011 (ip), vehicle: carboxymethylcellulose (CMC)
[6] = dose: 30.0 mg/kg/injection, schedule: Q01DX011 (ip), vehicle: carboxymethylcellulose (CMC)
[7] = dose: 60.0 mg/kg/injection, schedule: Q01DX011 (ip), vehicle: carboxymethylcellulose (CMC)
[8] = dose: 120.0 mg/kg/injection, schedule: Q01DX011 (ip), vehicle: carboxymethylcellulose (CMC)

With `ClCCn1cnc2c(SCc3ccccc3)ncnc21` the T/C (dose: 0.5 mg/kg/injection, schedule: Q01DX011 (ip), vehicle: other) was 115 % of control, the T/C (dose: 0.5 mg/kg/injection, schedule: Q01DX011 (oral), vehicle: other) was 98 % of control and the T/C (dose: 1.0 mg/kg/injection, schedule: Q01DX011 (ip), vehicle: other) was 72 % of control. The T/C (dose: 1.0 mg/kg/injection, schedule: Q01DX011 (oral), vehicle: other) was 79 % of control, the T/C (dose: 2.0 mg/kg/injection, schedule: Q01DX011 (ip), vehicle: other) was 67 % of control and the T/C (dose: 2.0 mg/kg/injection, schedule: Q01DX011 (oral), vehicle: other) was 72 % of control. For the same compound, the T/C (dose: 4.0 mg/kg/injection, schedule: Q01DX011 (ip), vehicle: other) was 36 % of control, the T/C (dose: 4.0 mg/kg/injection, schedule: Q01DX011 (oral), vehicle: other) was 40 % of control and the T/C (dose: 8.0 mg/kg/injection, schedule: Q01DX011 (ip), vehicle: other) was 3 % of control. For the same compound, the T/C (dose: 15.0 mg/kg/injection, schedule: Q01DX011 (ip), vehicle: other) was 3 % of control, the T/C (dose: 15.0 mg/kg/injection, schedule: Q01DX011 (oral), vehicle: other) was 7 % of control and the T/C [1] was 1 % of control. For the same compound, the T/C [2] was 3 % of control.

In the case of `Cn1cnc2nc[nH]c2c1=N`, the T/C (dose: 30.0 mg/kg/injection, schedule: Q01DX011 (ip), vehicle: saline) is reported as 115 % of control, the T/C (dose: 60.0 mg/kg/injection, schedule: Q01DX011 (ip), vehicle: saline) is reported as 93 % of control and the T/C (dose: 120.0 mg/kg/injection, schedule: Q01DX011 (ip), vehicle: saline) is reported as 74 % of control. The T/C (dose: 240.0 mg/kg/injection, schedule: Q01DX011 (ip), vehicle: saline) was 109 % of control.

With `NC(=O)c1ccc(NC(=O)CCC(=O)Nc2ccc(C(N)=O)cn2)nc1` the T/C [3] was 83 % of control, the T/C (dose: 0.5 mg/kg/injection, schedule: Q01DX011 (ip), vehicle: carboxymethylcellulose (CMC)) was 93 % of control and the T/C [4] was 80 % of control. For the same compound, the T/C [5] was 33 % of control, the T/C (dose: 2.5 mg/kg/injection, schedule: Q01DX011 (ip), vehicle: carboxymethylcellulose (CMC)) was 16 % of control and the T/C (dose: 5.0 mg/kg/injection, schedule: Q01DX011 (ip), vehicle: carboxymethylcellulose (CMC)) was 7 % of control.

With `CC(=O)OCC(=O)[C@@]1(O)CC[C@H]2[C@@H]3CCC4=CC(=O)C=C[C@]4(C)[C@H]3[C@@H](O)C[C@@]21C` the T/C (dose: 20.0 mg/kg/injection, schedule: Q01DX011 (sc), vehicle: steriod suspending solution) was 23 % of control and 26 % of control, the T/C (dose: 40.0 mg/kg/injection, schedule: Q01DX011 (sc), vehicle: steriod suspending solution) was 24 % of control and 26 % of control and the T/C (dose: 67.5 mg/kg/injection, schedule: Q01DX011 (sc), vehicle: steriod suspending solution) was 30 % of control. For the same compound, the T/C (dose: 80.0 mg/kg/injection, schedule: Q01DX011 (sc), vehicle: steriod suspending solution) was 88 % of control and the T/C (dose: 160.0 mg/kg/injection, schedule: Q01DX011 (sc), vehicle: steriod suspending solution) was 40 % of control.

`CC(CN1CCN(C)CC1)CN1c2ccccc2Sc2ccc(C(F)(F)F)cc21` (stereo not drawn) was tested, and the T/C (dose: 17.5 mg/kg/injection, schedule: Q01DX011 (ip), vehicle: methylcellulose (MC)) was 64 % of control, the T/C (dose: 35.0 mg/kg/injection, schedule: Q01DX011 (ip), vehicle: methylcellulose (MC)) was 52 % of control and the T/C (dose: 70.0 mg/kg/injection, schedule: Q01DX011 (ip), vehicle: methylcellulose (MC)) was 58 % of control.

In the case of `C=CC(=O)NCO`, the T/C (dose: 100.0 mg/kg/injection, schedule: Q01DX011 (ip), vehicle: other) is reported as 86 % of control, the T/C (dose: 150.0 mg/kg/injection, schedule: Q01DX011 (ip), vehicle: other) is reported as 89 % of control and the T/C (dose: 200.0 mg/kg/injection, schedule: Q01DX011 (ip), vehicle: other) is reported as 88 % of control.

In the case of `Cc1cnc(SCc2ccccc2Cl)nc1N(C)C`, the T/C (dose: 15.0 mg/kg/injection, schedule: Q01DX011 (ip), vehicle: methylcellulose (MC)) is reported as 89 % of control and the T/C (dose: 125.0 mg/kg/injection, schedule: Q01DX011 (ip), vehicle: methylcellulose (MC)) is reported as 109 % of control.

`N#Cc1cn(C2OC(CO)C(O)C2O)c2ncnc(N)c12` (stereo not drawn) was tested, and the T/C (dose: 0.15 mg/kg/injection, schedule: Q01DX011 (ip), vehicle: carboxymethylcellulose (CMC)) was 72 % of control.

In the case of `O=P(N1CCCC1)(N1CC1)N1CC1`, the T/C (dose: 0.2 mg/kg/injection, schedule: Q01DX011 (ip), vehicle: saline) is reported as 94 % of control and 75 % of control, the T/C [3] is reported as 110 % of control and the T/C (dose: 0.5 mg/kg/injection, schedule: Q01DX011 (ip), vehicle: saline) is reported as 54 % of control and 79 % of control. The T/C [4] was 42 % of control, the T/C (dose: 1.0 mg/kg/injection, schedule: Q01DX011 (ip), vehicle: saline) was 8 % of control and 21 % of control and the T/C [5] was 46 % of control. The T/C (dose: 2.0 mg/kg/injection, schedule: Q01DX011 (ip), vehicle: saline) was 3 % of control, the T/C (dose: 4.0 mg/kg/injection, schedule: Q01DX011 (ip), vehicle: carboxymethylcellulose (CMC)) was 23 % of control and the T/C (dose: 6.0 mg/kg/injection, schedule: Q01DX011 (ip), vehicle: carboxymethylcellulose (CMC)) was 8 % of control. For the same compound, the T/C (dose: 8.0 mg/kg/injection, schedule: Q01DX011 (ip), vehicle: carboxymethylcellulose (CMC)) was 11 % of control and the T/C (dose: 12.0 mg/kg/injection, schedule: Q01DX011 (ip), vehicle: saline) was 3 % of control.

`O=c1[nH]c2cnc(Cl)nc2[nH]1` was tested, and the T/C [6] was 116 % of control, the T/C [7] was 85 % of control and the T/C [8] was 168 % of control.

For `CN(C)N=Nc1ccc(CCC(=O)NN)cc1`, the T/C (dose: 10.0 mg/kg/injection, schedule: Q01DX011 (ip), vehicle: saline) was 63 % of control, the T/C (dose: 15.0 mg/kg/injection, schedule: Q01DX011 (ip), vehicle: saline) was 56 % of control and the T/C (dose: 20.0 mg/kg/injection, schedule: Q01DX011 (ip), vehicle: saline) was 44 % of control. The T/C (dose: 31.0 mg/kg/injection, schedule: Q01DX011 (ip), vehicle: saline) was 40 % of control.

For `FC(F)(F)c1nc(Cl)nc2c1ncn2Cc1ccccc1`, the T/C [6] was 56 % of control, the T/C [7] was 97 % of control and the T/C [8] was 97 % of control.

`CC(/C=N\N=C(N)N)=N/N=C(N)N` was tested, and the T/C (dose: 5.75 mg/kg/injection, schedule: Q01DX011 (ip), vehicle: carboxymethylcellulose (CMC)) was 84 % of control, the T/C (dose: 7.62 mg/kg/injection, schedule: Q01DX011 (ip), vehicle: carboxymethylcellulose (CMC)) was 77 % of control and the T/C (dose: 11.5 mg/kg/injection, schedule: Q01DX011 (ip), vehicle: carboxymethylcellulose (CMC)) was 78 % of control. For the same compound, the T/C (dose: 15.24 mg/kg/injection, schedule: Q01DX011 (ip), vehicle: carboxymethylcellulose (CMC)) was 71 % of control, the T/C (dose: 18.4 mg/kg/injection, schedule: Q01DX011 (ip), vehicle: carboxymethylcellulose (CMC)) was 70 % of control and 86 % of control and the T/C (dose: 23.0 mg/kg/injection, schedule: Q01DX011 (ip), vehicle: carboxymethylcellulose (CMC)) was 93 % of control and 100 % of control and 80 % of control. For the same compound, the T/C (dose: 30.48 mg/kg/injection, schedule: Q01DX011 (ip), vehicle: carboxymethylcellulose (CMC)) was 42 % of control, the T/C (dose: 46.0 mg/kg/injection, schedule: Q01DX011 (ip), vehicle: carboxymethylcellulose (CMC)) was 29 % of control and 45 % of control and 51 % of control and the T/C (dose: 60.96 mg/kg/injection, schedule: Q01DX011 (ip), vehicle: carboxymethylcellulose (CMC)) was 35 % of control.

With `Nc1nc(Br)c2[nH]cnc2n1` the T/C [7] was 1 % of control.

With `NS(=O)(=O)c1nc(=S)c2[nH]cnc2[nH]1` the T/C [1] was 108 % of control, the T/C (dose: 75.0 mg/kg/injection, schedule: Q01DX011 (ip), vehicle: carboxymethylcellulose (CMC)) was 117 % of control and the T/C (dose: 225.0 mg/kg/injection, schedule: Q01DX011 (ip), vehicle: carboxymethylcellulose (CMC)) was 79 % of control.

`Nc1nc(NCc2ccccc2)cc(=O)[nH]1` was tested, and the T/C (dose: 55.0 mg/kg/injection, schedule: Q01DX011 (ip), vehicle: methylcellulose (MC)) was 66 % of control and the T/C (dose: 165.0 mg/kg/injection, schedule: Q01DX011 (ip), vehicle: methylcellulose (MC)) was 49 % of control.

For `COC(=O)C1(N)CCCC1`, the T/C (dose: 12.5 mg/kg/injection, schedule: Q01DX011 (ip), vehicle: carboxymethylcellulose (CMC)) was 63 % of control, the T/C [1] was 35 % of control and the T/C [2] was 11 % of control. For the same compound, the T/C (dose: 100.0 mg/kg/injection, schedule: Q01DX011 (ip), vehicle: carboxymethylcellulose (CMC)) was 5 % of control.

`CCn1cnc2c(=S)nc(N)[nH]c21` was tested, and the T/C (dose: 0.44 mg/kg/injection, schedule: Q01DX011 (ip), vehicle: methylcellulose (MC)) was 108 % of control, the T/C (dose: 0.88 mg/kg/injection, schedule: Q01DX011 (ip), vehicle: methylcellulose (MC)) was 66 % of control and the T/C (dose: 1.75 mg/kg/injection, schedule: Q01DX011 (ip), vehicle: methylcellulose (MC)) was 33 % of control. The T/C (dose: 3.5 mg/kg/injection, schedule: Q01DX011 (ip), vehicle: methylcellulose (MC)) was 3 % of control.

In the case of `CN(CC(=O)O)C(=N)N`, the T/C (dose: 1500.0 mg/kg/injection, schedule: Q#A X022 (ip), vehicle: water) is reported as 86 % of control and the T/C (dose: 2500.0 mg/kg/injection, schedule: Q#A X022 (ip), vehicle: water) is reported as 66 % of control.
